Test results as given in patent publication US12660819B2, “Herbicidal derivatives” (SYNGENTA CROP PROTECTION AG, priority 2020, dated 2026).

How the values were obtained:
Format in all cases: in vivo
[1] = tested on: Echinochloa crus-galli (ECHCG); assay: Pre-emergence Test (glasshouse, percentage damage to the plant); settings: 1000 g/ha unless otherwise stated, five-point scale
[2] = tested on: Lolium perenne (LOLPE); assay: as above; settings: 1000 g/ha unless otherwise stated, five-point scale
[3] = tested on: Setaria faberi (SETFA); assay: as above; settings: 1000 g/ha unless otherwise stated, five-point scale
[4] = tested on: Ipomoea hederacea (IPOHE); assay: as above; settings: 1000 g/ha unless otherwise stated, five-point scale
[5] = tested on: Solanum nigrum (SOLNI); assay: as above; settings: 1000 g/ha unless otherwise stated, five-point scale
[6] = tested on: Amaranthus retoflexus (AMARE); assay: as above; settings: 1000 g/ha unless otherwise stated, five-point scale
[7] = tested on: Echinochloa crus-galli (ECHCG); assay: Post-emergence Test (glasshouse, percentage damage to the plant); settings: post-emergence spray, 1000 g/ha unless otherwise stated, evaluated after 13 days
In short: (§1)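 Seeds are sown in standard soil under controlled glasshouse conditions. The pots are then sprayed at 1000 g/ha, unless otherwise stated, with compound in acetone/water (50:50) containing 0.5% Tween 20. After 13 days further growth, percentage plant damage is scored from 1 (0-20%) to 5 (81-100%).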

[8] = tested on: Ipomoea hederacea (IPOHE); assay: as above; settings: post-emergence spray, 1000 g/ha unless otherwise stated, evaluated after 13 days
In short: (§2)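 Compound formulated in 50:50 acetone/water with 0.5% Tween 20 was diluted to an aqueous spray and applied at 1000 g/ha, unless otherwise stated, onto sown pots. Evaluation after 13 days gave percentage damage, banded into a 1–5 score.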

[9] = tested on: Lolium perenne (LOLPE); assay: as above; settings: post-emergence spray, 1000 g/ha unless otherwise stated, evaluated after 13 days
In short: as §1

[10] = tested on: Amaranthus retoflexus (AMARE); assay: as above; settings: post-emergence spray, 1000 g/ha unless otherwise stated, evaluated after 13 days
In short: as §1

[11] = tested on: Solanum nigrum (SOLNI); assay: as above; settings: post-emergence spray, 1000 g/ha unless otherwise stated, evaluated after 13 days
In short: as §1

[12] = tested on: Setaria faberi (SETFA); assay: as above; settings: post-emergence spray, 1000 g/ha unless otherwise stated, evaluated after 13 days
In short: as §2

SMILES | percentage damage to the plant, ECHCG [1] | percentage damage to the plant, LOLPE [2] | percentage damage to the plant, SETFA [3] | percentage damage to the plant, IPOHE [4] | percentage damage to the plant, SOLNI [5] | percentage damage to the plant, AMARE [6] | Post-emergence Test ECHCG, percentage damage to the plant (five-point scale) [7] | Post-emergence Test IPOHE, percentage damage to the plant (five-point scale) [8] | Post-emergence Test LOLPE, percentage damage to the plant (five-point scale) [9] | Post-emergence Test AMARE, percentage damage to the plant (five-point scale) [10] | Post-emergence Test SOLNI, percentage damage to the plant (five-point scale) [11] | Post-emergence Test SETFA, percentage damage to the plant (five-point scale) [12]
CCn1c(C)c(-c2ccc(F)cc2)c(=O)c(C(=O)O)c1-c1ccc(Cl)c(Cl)c1 [Compound 11, 2-(3,4-dichlorophenyl)-1-ethyl-5-(4-fluorophenyl)-6-methyl-4-oxo-pyridine-3-carboxylic acid] | 5 (5=81-100%) | 1 (1=0-20%) | 5 (5=81-100%) | 2 (2=21-40%) | 5 (5=81-100%) | 5 (5=81-100%) | 4 (4=61-80%) | 4 (4=61-80%) | 2 (2=21-40%) | 4 (4=61-80%) | 5 (5=81-100%) | 4 (4=61-80%)
CCn1c(C)c(-c2ccncc2)c(=O)c(C(=O)O)c1-c1ccc(Cl)c(Cl)c1 [Compound 25, 2-(3,4-dichlorophenyl)-1-ethyl-6-methyl-4-oxo-5-pyridin-1-ium-4-yl-pyridine-3-carboxylic acid;2,2,2-trifluoroacetate] | 1 (1=0-20%) | 1 (1=0-20%) | 3 (3=41-60%) | 1 (1=0-20%) | 1 (1=0-20%) | 1 (1=0-20%) | 4 (4=61-80%) | 2 (2=21-40%) | 1 (1=0-20%) | 3 (3=41-60%) | 2 (2=21-40%) | 4 (4=61-80%)
CCn1c(C)c(-c2cccc(OC(F)(F)F)c2)c(=O)c(C(=O)O)c1-c1ccc(Cl)c(Cl)c1 [Compound 16, 2-(3,4-dichlorophenyl)-1-ethyl-6-methyl-4-oxo-5-[3-(trifluoromethoxy)phenyl]pyridine-3-carboxylic acid] | 4 (4=61-80%) | 1 (1=0-20%) | 3 (3=41-60%) | 2 (2=21-40%) | 1 (1=0-20%) | 1 (1=0-20%) | 5 (5=81-100%) | 4 (4=61-80%) | 1 (1=0-20%) | 4 (4=61-80%) | 4 (4=61-80%) | 5 (5=81-100%)
CCn1c(C)c(-c2ccc([N+](=O)[O-])cc2)c(=O)c(C(=O)O)c1-c1ccc(Cl)c(Cl)c1 [Compound 36, 2-(3,4-dichlorophenyl)-1-ethyl-6-methyl-5-(4-nitrophenyl)-4-oxo-pyridine-3-carboxylic acid] | 5 (5=81-100%) | 1 (1=0-20%) | 5 (5=81-100%) | 1 (1=0-20%) | 3 (3=41-60%) | 1 (1=0-20%) | 5 (5=81-100%) | 1 (1=0-20%) | 1 (1=0-20%) | 1 (1=0-20%) | 2 (2=21-40%) | 4 (4=61-80%)
CCn1c(C)c(-c2cncn2C)c(=O)c(C(=O)O)c1-c1ccc(Cl)c(Cl)c1 [Compound 40, 2-(3,4-dichlorophenyl)-1-ethyl-6-methyl-5-(3-methylimidazol-4-yl)-4-oxo-pyridine-3-carboxylic acid] | 1 (1=0-20%) | 1 (1=0-20%) | 1 (1=0-20%) | 1 (1=0-20%) | 1 (1=0-20%) | 1 (1=0-20%) | 1 (1=0-20%) | 1 (1=0-20%) | 1 (1=0-20%) | 1 (1=0-20%) | 2 (2=21-40%) | 1 (1=0-20%)
CCn1c(C)c(-c2ccc(OC)cc2)c(=O)c(C(=O)O)c1-c1ccc(Cl)c(Cl)c1 [Compound 18, 2-(3,4-dichlorophenyl)-1-ethyl-5-(4-methoxyphenyl)-6-methyl-4-oxo-pyridine-3-carboxylic acid] | 2 (2=21-40%) | 1 (1=0-20%) | 4 (4=61-80%) | 1 (1=0-20%) | 2 (2=21-40%) | 1 (1=0-20%) | 4 (4=61-80%) | 5 (5=81-100%) | 2 (2=21-40%) | 5 (5=81-100%) | 5 (5=81-100%) | 5 (5=81-100%)
CCn1c(C)c(-c2ccsc2)c(=O)c(C(=O)O)c1-c1ccc(Cl)c(Cl)c1 [Compound 30, 2-(3,4-dichlorophenyl)-1-ethyl-6-methyl-4-oxo-5-(3-thienyl)pyridine-3-carboxylic acid] | 3 (3=41-60%) | 2 (2=21-40%) | 4 (4=61-80%) | 2 (2=21-40%) | 2 (2=21-40%) | 1 (1=0-20%) | 2 (2=21-40%) | 3 (3=41-60%) | 2 (2=21-40%) | 4 (4=61-80%) | 3 (3=41-60%) | 3 (3=41-60%)
CCn1c(C)c(-c2cscc2C)c(=O)c(C(=O)O)c1-c1ccc(Cl)c(Cl)c1 [Compound 20, 2-(3,4-dichlorophenyl)-1-ethyl-6-methyl-5-(4-methyl-3-thienyl)-4-oxo-pyridine-3-carboxylic acid] | 2 (2=21-40%) | 3 (3=41-60%) | 4 (4=61-80%) | 1 (1=0-20%) | 2 (2=21-40%) | 1 (1=0-20%) | 3 (3=41-60%) | 2 (2=21-40%) | 2 (2=21-40%) | 4 (4=61-80%) | 3 (3=41-60%) | 4 (4=61-80%)
CCn1c(C)c(-c2ccc(OCc3ccccc3)cc2)c(=O)c(C(=O)O)c1-c1ccc(Cl)c(Cl)c1 [Compound 34, 5-(4-benzyloxyphenyl)-2-(3,4-dichlorophenyl)-1-ethyl-6-methyl-4-oxo-pyridine-3-carboxylic acid] | 1 (1=0-20%) | 2 (2=21-40%) | 3 (3=41-60%) | 1 (1=0-20%) | 2 (2=21-40%) | 3 (3=41-60%) | 2 (2=21-40%) | 1 (1=0-20%) | 1 (1=0-20%) | 4 (4=61-80%) | 4 (4=61-80%) | 2 (2=21-40%)
